# Active and inactive are the calls of the source. The calls are words filed in the database; no cut-off is given here.
# Experiments:
# L6 = assay: Induction of glucose uptake in rat L6 cells incubated for 24 hrs by GOD-POD technique; format: functional; design: concentration or dose not given beside the values
# Rattus norvegicus [1] = assay: Anti-diabetic activity in fructose-treated male Wistar rat assessed as decrease in SGOT level at 30 mg/kg, po administered for 15 days (reference value: […]); format: functional; details: time 15 day
# [2] = Drug recovery in rat plasma at 150 mg/kg, po by HPLC analysis; format: ADME, organism-based; details: in vivo
# [3] = biological target: T1, Peroxisome proliferator-activated receptor gamma (Homo sapiens) (UniProt P37231); assay: Agonist activity at PPARgamma in human HepG2 cells assessed as increase in PPARgamma transcription factor expression by ELISA analysis; format: cell-based; details: filed as agonist, dose 6.25-50 µM
# T1 sequence (whole entry): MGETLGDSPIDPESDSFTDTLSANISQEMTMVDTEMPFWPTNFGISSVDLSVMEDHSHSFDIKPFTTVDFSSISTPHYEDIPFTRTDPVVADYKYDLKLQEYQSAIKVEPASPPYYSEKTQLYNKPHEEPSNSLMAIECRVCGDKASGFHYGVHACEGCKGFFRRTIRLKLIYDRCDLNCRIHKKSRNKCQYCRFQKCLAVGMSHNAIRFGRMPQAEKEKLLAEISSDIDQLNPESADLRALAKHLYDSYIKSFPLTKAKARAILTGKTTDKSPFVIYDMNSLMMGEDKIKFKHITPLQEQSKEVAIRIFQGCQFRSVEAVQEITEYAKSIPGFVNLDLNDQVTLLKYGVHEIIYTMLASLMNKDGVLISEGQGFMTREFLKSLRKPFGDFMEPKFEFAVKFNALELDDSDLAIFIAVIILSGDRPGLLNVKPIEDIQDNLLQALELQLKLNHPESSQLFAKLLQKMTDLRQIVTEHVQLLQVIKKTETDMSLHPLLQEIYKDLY
# [4] = AUC (0 to infinity) in male Wistar rat at 30 mg/kg, po measured upto 24 hrs; format: ADME, organism-based; details: in vivo
# Rattus norvegicus [5] = assay: Anti-diabetic activity in fructose-treated male Wistar rat assessed as decrease in adipocyte count 30 mg/kg, po administered for 15 days by H and E staining based analysis; format: functional, organism-based; details: time 15.0 day
# [6] = AUC (0 to t) in male Wistar rat at 30 mg/kg, po measured upto 24 hrs; format: ADME, organism-based; details: in vivo
# Rattus norvegicus [7] = assay: Anti-diabetic activity in fructose-treated male Wistar rat assessed as decrease in fasting blood glucose level at 30 mg/kg, po administered for 15 days; format: functional, organism-based; details: time 15.0 day
# Rattus norvegicus [8] = assay: Anti-diabetic activity in fructose-treated male Wistar rat assessed as kupffer cell hyperplasia in liver 30 mg/kg, po administered for 15 days by H and E staining based analysis; format: functional, organism-based; details: time 15.0 day
# Rattus norvegicus [9] = assay: Anti-diabetic activity in fructose-treated male Wistar rat assessed as increase in SOD level in liver at 30 mg/kg, po administered for 15 days (reference value: 13.25 +/-1.35 U/ml); format: functional; details: time 15 day
# [10] = Retention time of the compound by HPLC analysis; format: physicochemical
# Rattus norvegicus [11] = assay: Anti-diabetic activity in fructose-treated male Wistar rat assessed as decrease in VLDL level at 30 mg/kg, po administered for 15 days (reference value: 28 +/-0.28 mg/dL); format: functional; details: time 15 day
# [12] = Drug recovery in rat plasma at 100 mg/kg, po by HPLC analysis; format: ADME, organism-based; details: in vivo
# Rattus norvegicus [13] = assay: Anti-diabetic activity in fructose-treated male Wistar rat assessed as increase in glycogen content in skeletal muscle at 30 mg/kg, po administered for 15 days; format: functional, organism-based; details: time 15.0 day
# Rattus norvegicus [14] = assay: Anti-diabetic activity in fructose-treated male Wistar rat assessed as decrease in triglycerides level at 30 mg/kg, po administered for 15 days (reference value: 140.03 +/-3.55 mg/dL); format: functional; details: time 15 day
# Rattus norvegicus [15] = assay: Anti-diabetic activity in fructose-treated male Wistar rat assessed as sinusoidal congestion in liver 30 mg/kg, po administered for 15 days by H and E staining based analysis; format: functional, organism-based; details: time 15.0 day
# Rattus norvegicus [16] = assay: Anti-diabetic activity in fructose-treated male Wistar rat assessed as increase in glycogen content in liver at 30 mg/kg, po administered for 15 days; format: functional, organism-based; details: time 15.0 day
# Rattus norvegicus [17] = assay: Anti-diabetic activity in Wistar rat Diaphragm assessed as […] at 30 mg/kg, po administered for 15 days; format: functional, organism-based; details: time 15.0 day
# Rattus norvegicus [18] = assay: Anti-diabetic activity in fructose-treated male Wistar rat assessed as increase in GSH level in liver at 30 mg/kg, po administered for 15 days (reference value: 39.98 +/-0.86 nM/mg ); format: functional; details: time 15 day
# [19] = Drug recovery in rat plasma at 50 mg/kg, po by HPLC analysis; format: ADME, organism-based; details: in vivo
# Rattus norvegicus [20] = assay: Anti-diabetic activity in fructose-treated male Wistar rat assessed as increase in CAT level in liver at 30 mg/kg, po administered for 15 days (reference value: 27.65 +/-1.02 U/min); format: functional; details: time 15 day
# Rattus norvegicus [21] = assay: Anti-diabetic activity in fructose-treated male Wistar rat assessed as decrease in insulin level at 30 mg/kg, po administered for 15 days by insulin tolerance test; format: functional, organism-based; details: time 15.0 day
# [22] = Tmax in male Wistar rat at 30 mg/kg, po measured upto 24 hrs; format: ADME, organism-based; details: in vivo
# Rattus norvegicus [23] = assay: Anti-diabetic activity in fructose-treated male Wistar rat assessed as decrease in MDA level in liver at 30 mg/kg, po administered for 15 days (reference value: 294.65 +/-11.78 nM/mg ); format: functional; details: time 15 day
# Rattus norvegicus [24] = assay: Anti-diabetic activity in fructose-treated male Wistar rat assessed as steatosis in liver 30 mg/kg, po administered for 15 days by H and E staining based analysis; format: functional, organism-based; details: time 15.0 day
# Rattus norvegicus [25] = assay: Anti-diabetic activity in fructose-treated male Wistar rat assessed as increase in HDL level at 30 mg/kg, po administered for 15 days (reference value: 25.35 +/-2.03 mg/dL); format: functional; details: time 15 day
# [26] = Acute toxicity in male Wistar rat assessed as body weight gain at 10 mg/kg, po administered for 15 days; format: organism-based; details: in vivo, 360 h, time 15 day
# Rattus norvegicus [27] = assay: Anti-diabetic activity in fructose-treated male Wistar rat assessed as ballooning degeneration in liver 30 mg/kg, po administered for 15 days by H and E staining based analysis; format: functional, organism-based; details: time 15.0 day
# [28] = Acute toxicity in male Wistar rat assessed as change in body weight at 10 mg/kg, po administered for 15 days; format: organism-based; details: in vivo, 360 h, time 15 day
# Rattus norvegicus [29] = assay: Anti-diabetic activity in fructose-treated male Wistar rat assessed as decrease in SGPT level at 30 mg/kg, po administered for 15 days (reference value: […]); format: functional; details: time 15 day
# Rattus norvegicus [30] = assay: Anti-diabetic activity in fructose-treated male Wistar rat assessed as lymphocyte infiltration in liver 30 mg/kg, po administered for 15 days by H and E staining based analysis; format: functional, organism-based; details: time 15.0 day
# Rattus norvegicus [31] = assay: Anti-diabetic activity in fructose-treated male Wistar rat assessed as increase in LDL level at 30 mg/kg, po administered for 15 days (reference value: 40.32 +/-1.08 mg/dL); format: functional; details: time 15 day
# [32] = Cmax in male Wistar rat at 30 mg/kg, po measured upto 24 hrs; format: ADME, organism-based; details: in vivo
# Rattus norvegicus [33] = assay: Anti-diabetic activity in fructose-treated male Wistar rat assessed as increase in total cholesterol level at 30 mg/kg, po administered for 15 days (reference value: 93.68 +/-1.68 mg/dL); format: functional; details: time 15 day
# Rattus norvegicus [34] = assay: Anti-diabetic activity in fructose-treated male Wistar rat assessed as increase in HOMO-IR level at 30 mg/kg, po administered for 15 days; format: functional, organism-based; details: time 15.0 day
# [35] = Half life in male Wistar rat at 30 mg/kg, po measured upto 24 hrs; format: ADME, organism-based; details: in vivo
# Rattus norvegicus [36] = assay: Anti-diabetic activity in fructose-treated male Wistar rat assessed as change in HOMO-IR level at 30 mg/kg, po administered for 15 days; format: functional, organism-based; details: time 15.0 day
# [37] = biological target: T1, Peroxisome proliferator-activated receptor gamma (Homo sapiens); assay: Agonist activity at Gal4-fused human PPARgamma transfected in African green monkey CV-1 cells assessed as receptor transactivation incubated for 24 hrs by luciferase based assay relative to control; format: cell-based
smiles,measurement,setting,value
CN(C)c1ccc(/C=C2\SC(=O)N(CC(=O)N3CCC[C@@H]3C#N)C2=O)cc1,Activity,L6,64.18%
N#C[C@H]1CCCN1C(=O)CN1C(=O)S/C(=C\c2ccccc2O)C1=O,Activity,L6,72.86%
N#C[C@H]1CCCN1C(=O)CN1C(=O)S/C(=C\c2ccccc2)C1=O,Activity,L6,63.23%
Cc1ccc(/C=C2\SC(=O)N(CC(=O)N3CCC[C@@H]3C#N)C2=O)cc1,Activity,L6,64.57%
N#C[C@H]1CCCN1C(=O)CN1C(=O)S/C(=C\c2ccc(F)cc2)C1=O,Activity,Rattus norvegicus [1],46.36 U/L
same,Drug recovery,[2],98.36%
same,Activity,[3],Dose-dependent-effect
same,AUC(0-inf),[4],6240 ng·h/mL
same,Activity,Rattus norvegicus [5],Active
same,AUC(0-t) at 24 h,[6],5620 ng·h/mL
same,Activity,L6,74.58%
same,Activity,Rattus norvegicus [7],Active
same,Activity,Rattus norvegicus [8],Active
same,Activity,Rattus norvegicus [9],20.36 U/ml
same,Retention_time,[10],6.7 min
same,Activity,Rattus norvegicus [11],17.23 mg/dL
same,Drug recovery,[12],99.58%
same,Activity,Rattus norvegicus [13],Active
same,Activity,Rattus norvegicus [14],86.15 mg/dL
same,Activity,Rattus norvegicus [15],Active
same,Activity,Rattus norvegicus [16],Active
same,Activity,Rattus norvegicus [17],Active
same,Activity,Rattus norvegicus [18],58.63 nM/mg
same,Drug recovery,[19],99.96%
same,Activity,Rattus norvegicus [20],48.65 U/min
same,Activity,Rattus norvegicus [21],Active
same,Tmax,[22],2 h
same,Activity,Rattus norvegicus [23],224.65 nM/mg
same,Activity,Rattus norvegicus [24],Active
same,Activity,Rattus norvegicus [25],51.39 mg/dL
same,Activity,[26],Non-toxic
same,Activity,Rattus norvegicus [27],Active
same,Activity,[28],Non-toxic
same,Activity,Rattus norvegicus [29],39.72 U/L
same,Activity,Rattus norvegicus [30],Active
same,Activity,Rattus norvegicus [31],42.74 mg/dL
same,Cmax,[32],926 ng/mL
same,Activity,Rattus norvegicus [33],112.3 mg/dL
same,Activity,Rattus norvegicus [34],Active
same,half-life,[35],3.96 h
N#C[C@H]1CCCN1C(=O)CN1C(=O)S/C(=C\c2ccco2)C1=O,Activity,L6,57.4%
N#C[C@H]1CCCN1C(=O)CN1C(=O)S/C(=C\c2ccc(O)cc2)C1=O,Activity,Rattus norvegicus [1],41.32 U/L
same,Drug recovery,[2],96.1%
same,Activity,[3],Dose-dependent-effect
same,AUC(0-inf),[4],6620 ng·h/mL
same,Activity,Rattus norvegicus [5],Active
same,AUC(0-t) at 24 h,[6],5980 ng·h/mL
same,Activity,Rattus norvegicus [36],Active
same,Activity,L6,79.29%
same,Activity,Rattus norvegicus [7],Active
same,Activity,Rattus norvegicus [8],Active
same,Activity,Rattus norvegicus [9],24.68 U/ml
same,Retention_time,[10],4.4 min
same,Activity,Rattus norvegicus [11],15.23 mg/dL
same,Drug recovery,[12],101%
same,Activity,Rattus norvegicus [13],Active
same,Activity,Rattus norvegicus [14],76.18 mg/dL
same,Activity,Rattus norvegicus [15],Active
same,Activity,Rattus norvegicus [16],Active
same,Activity,Rattus norvegicus [17],Active
same,Activity,Rattus norvegicus [18],61.35 nM/mg
same,Drug recovery,[19],97.1%
same,Activity,Rattus norvegicus [20],52.36 U/min
same,Activity,Rattus norvegicus [21],Active
same,Tmax,[22],2.21 h
same,Activity,Rattus norvegicus [23],197.32 nM/mg
same,Activity,Rattus norvegicus [24],Active
same,Activity,Rattus norvegicus [25],53.25 mg/dL
same,Activity,[26],Non-toxic
same,Activity,Rattus norvegicus [27],Active
same,Activity,[28],Non-toxic
same,Activity,Rattus norvegicus [29],37.12 U/L
same,Activity,Rattus norvegicus [30],Active
same,Activity,Rattus norvegicus [31],47.8 mg/dL
same,Cmax,[32],1030 ng/mL
same,Activity,Rattus norvegicus [33],114.79 mg/dL
same,half-life,[35],4.21 h
COc1cc(/C=C2\SC(=O)N(CC(=O)N3CCC[C@@H]3C#N)C2=O)cc(OC)c1OC,Activity,L6,69.74%
COc1ccc(/C=C2\SC(=O)N(CC(=O)N3CCC[C@@H]3C#N)C2=O)cc1OC,Activity,L6,64.56%
O=C1NC(=O)C(Cc2ccc(OCc3cccc(Br)c3)cc2)S1 (stereo unspecified),Activity,[37],21.2%
COc1ccc(/C=C2\SC(=O)N(CC(=O)N3CCC[C@@H]3C#N)C2=O)cc1,Activity,L6,58.66%

# Reference: ChEMBL document CHEMBL6074653, “Reversal of insulin resistance to combat type 2 diabetes mellitus by newer thiazolidinedione's in fructose induced insulin resistant rats” (Eur J Med Chem, 2024)
